Consider one molecule from publication PMC6829886, “Inhibition of Non-Small Cell Lung Cancer Cells by Oxy210, an Oxysterol-Derivative that Antagonizes TGFβ and Hedgehog Signaling” (Cells, 2019).

Like-named read-outs stand apart in the source and are kept apart here.

Assay [1] relates to Hh pathway target genes Gli1 and Hip in Sufu-/- MEFs. The experiment in a line: Hh target gene expression in Sufu-/- mouse embryonic fibroblasts. It counts as cell-based. The conditions noted are these: 72 h. The protocol:
(§1) Total RNA was extracted with the RNeasy Plus Mini Kit from Qiagen (Hilden, Germany) according to the manufacturer’s instructions. One microgram of RNA was reverse-transcribed using an iScript Reverse Transcription Supermix from Bio-Rad Laboratories (Hercules, CA, USA) to make single-stranded cDNA. The cDNAs were then mixed with Qi SYBR Green Supermix (Bio-Rad) for quantitative RT-PCR assay using a Bio-Rad I-cycler IQ quantitative thermocycler. All PCR samples were prepared in triplicate wells in a 96-well plate. After 40 cycles of PCR, melt curves were examined in order to ensure primer specificity. Fold changes in gene expression were calculated using the ΔΔCt method. Primers used for mouse were as follows: Oaz1 (5′-CCACTGCTTCGCCAGAGAG-3′) and (5′-CCCGGACCCAGGTTACTA-3′), Gli1 (5′- […]-3′ and 5′- GCT GATCCAGCCTAAGGTTCTC-3′), Ptch1 (5′-CCATCGGCGACAAGAACC-3′ and 5′-[…]-3′), Thbs1 (5′-[…]-3′ and 5′-CGGGGATCAGGTTGGCATT-3′), Cryab (5′-[…]-3′ and 5′-[…]-3′), Egr2 (5′-[…]-3′ and 5′-[…]-3′), CTGF (5′-GGGCCTCTTCTGCGATTTC-3′ and 5′-[…]-3′).
Figure 5 Oxy210 acts downstream of Smo. (a) Sufu-/- MEF cells were treated with DMEM containing 5% FBS in the presence or absence of Oxy210. After 72 h, RNA was extracted and analyzed by Q-RT-PCR for the expression of Hh target genes Gli1 and Hip, normalized to Oaz1 expression. […] Luciferase activity was measured and normalized to the Renilla luciferase activity. […]

The subject of assay [2] is GLI1, GLI2, SHH mRNA in A549 NSCLC cells. The experiment in a line: GLI and SHH mRNA expression in A549 cells (Q-RT-PCR). The format is cell-based, human. The protocol: as §1
Primers used for human were as follows: GAPDH (5′- […]-3′ and 5′- […]-3′), SHH (5′- CGGAGCGAGGAAGGGAAAG-3′) and (5′- […]-3′), GLI1 (5′- GAAGCCGAGCCGAGTATC-3′ and 5′-[…]-3′), GLI2 (5′-[…]-3′ and 5′-[…]-3′), Fn-EDA (5′- […]-3′ and 5′- […]-3′), E-Cadherin (5′- […]-3′ and 5′- TCCCAGGCGTAGACCAAGA-3′), SNAIL (5′- […]-3′ and 5′- […]-3′), N-Cadherin (5′- […]-3′ and 5′- […]-3′), Vimentin (5′- […]-3′ and 5′- […]-3′), ZO-1 (5′- […]-3′ and 5′- […]-3′), MMP2 (5′- […]-3′ and 5′- […]-3′), MMP9 (5′-[…]-3′ and 5′-[…]).
Figure 6 Inhibition of Glis and SHH expression in Non-Small Cell Lung Cancer (NSCLC) cells. A549 (a) and H2030 (b) cells were treated with Oxy210 in RPMI 1640 containing 5% FBS for 72 h, then RNA was extracted and analyzed by Q-RT-PCR for the expression of the indicated genes and normalized to GAPDH expression. (c) A549 cells were pretreated for 2 h with Oxy210 in RPMI 1640 containing 5% FBS. […] After 48 h, RNA was extracted and analyzed by Q-RT-PCR for the expression of Gli1 and Shh and normalized to GAPDH expression. […]

Another assay concerns A549 cells. The experiment in a line: Cell counting (proliferation) assay in A549 cells. As to conditions: for IC50 / IC90: Homo sapiens. It counts as cell-based, human. Also on record: IC10 Estimate, dataset 2 - Fig 7a, log 10 scale Y: unit not given here. The protocol: A549 and H2030 cells cultured in RPMI 1640 containing 5% FBS in 12 well-plates at 20% confluence were treated with Oxy210 for 6 days and then trypsinized, spun down and resuspended in fresh medium. For the Carboplatin (CP) and Oxy210 co-treatment experiments, A549 cells cultured in RPMI 1640 containing 2% FBS in 12 well-plates at 20% confluence were treated with CP at different concentrations in the presence or absence of Oxy210 for 6 days. For the TGFβ-induced drug resistance assay, A549 cells cultured in RPMI 1640 containing 2% FBS in 12 well-plates at 10% confluence were pre-treated with TGFβ1 alone or together with Oxy210 for 3 days, and then treated with 20 μM CP for 4 days. An aliquot of cell suspension was applied to a hemocytometer and the cells were then counted under a light microscope.
Statistical analyses were performed using the StatView 5 program (SAS Institute, Cary, NC, USA). All p values were calculated using ANOVA and Fisher’s projected least significant difference (PLSD) significance test. A value of p < 0.05 was considered significant. The IC 50 dose-response curves shown in Figure 4b and Figure 7a–c were modeled using a five-parameter logistic model. This model allows for asymmetric curves and automatically estimates the mean maximum and minimum response. Based on this model, IC 50 values were estimated corresponding to the dose halfway between min and max response. Models of dose versus response and dose versus log response were also evaluated (see Supplementary Materials). The R square statistic was computed as a measure of model fit.
Figure 7 Inhibition of NSCLC cell proliferation by Oxy210. A549 (a), (c) and H2030 (b) cells were treated with the test agents as indicated in RPMI 1640 containing 5% FBS for 5 days and then were trypsinized and counted as described in Methods and Materials section. Data from a representative experiment are reported as the mean of triplicate determinations ± SD (* p < 0.05 vs. control; ** p < 0.01 vs. control).

For `C[C@]12CC[C@H]3[C@@H](CC=C4C[C@@H](O)CC[C@@]43C)[C@@H]1CC[C@@H]2[C@](C)(O)CCc1cccnc1` [Oxy210, (3S,8S,9S,10R,13S,14S,17S)-17-((R)-2-hydroxy-4-(pyridin-3-yl)butan-2-yl)-10,13-dimethyl-2,3,4,7,8,9,10,11,12,13,14,15,16,17-tetradecahydro-1H-cyclopenta[a]phenanthren-3-ol], the “high baseline expression of Hh pathway target genes Gli1 and Hip” value in assay [1] was “significant inhibition”. Also, the “mRNA expression of GLI1 and GLI2” value in assay [2] (5 μM, 72 h) is “significantly inhibited”. In addition, in assay [2] (72 h), the “expression of SHH mRNA” value was “significantly inhibited”. Besides, the “expression of GLI1 and SHH mRNA induced by TGFβ” value in assay [2] (TGFβ 10 ng/mL, 48 h) was “completely inhibited”. The “fold reduction (left shift) of the IC50 of CP” value in the assay with A549 cells (A549 cells, 2 μM Oxy210) was “about four-fold”. Further, in the assay with A549 cells (A549 cells, non-cytotoxic concentrations of CP (1 to 10 μM)), the “anti-proliferation potential of CP when combined” value is reported as “significantly improved”. Further, the “IC10 Estimate, dataset 2 - Fig 7a, log 10 scale Y” value in the assay with A549 cells (A549 cells/well, log 10 scale Y) is 2.61. Further, the IC10 Estimate, dataset 2 - Fig 7a, original scale Y with A549 cells (A549 cells/well, original scale Y) is 1.92 µM. In addition, the IC50 is 2.63 ± 1.01 µM in the assay with A549 cells (A549 cells, 5% FBS, ± SE, read-out: IC50, anti-proliferative effect (cell counting)) and 4.23 µM with A549 cells (A549 cells/well, log 10 scale Y, read-out: IC 50 Estimate, dataset 2 - Fig 7a, log 10 scale Y (converted)). The IC90 in the assay with A549 cells (A549 cells/well, log 10 scale Y, read-out: IC90 Estimate, dataset 2 - Fig 7a, log 10 scale Y (converted)) is 6.87 µM; with A549 cells (A549 cells/well, original scale Y, read-out: IC90 Estimate, dataset 2 - Fig 7a, original scale Y), 4.18 µM.

One may read the IC90 as the concentration at which the effect reaches the 90% level.
